Reference: patent US11358931B2, “Selective androgen receptor modulators (SARMs) and uses thereof” (priority 2007, dated 2022)
“Also recorded” adds a separate entry of the source.

Tests used:
[1] = target: T1, baculovirus expressed hAR protein (Homo sapiens, UniProt P10275); assay: Receptor binding assay ([3H]-dihydrotestosterone displacement)
T1 construct: made in house; host or cells: Sf-21 insect cells (baculovirus)
T1 sequence (P10275 1-920): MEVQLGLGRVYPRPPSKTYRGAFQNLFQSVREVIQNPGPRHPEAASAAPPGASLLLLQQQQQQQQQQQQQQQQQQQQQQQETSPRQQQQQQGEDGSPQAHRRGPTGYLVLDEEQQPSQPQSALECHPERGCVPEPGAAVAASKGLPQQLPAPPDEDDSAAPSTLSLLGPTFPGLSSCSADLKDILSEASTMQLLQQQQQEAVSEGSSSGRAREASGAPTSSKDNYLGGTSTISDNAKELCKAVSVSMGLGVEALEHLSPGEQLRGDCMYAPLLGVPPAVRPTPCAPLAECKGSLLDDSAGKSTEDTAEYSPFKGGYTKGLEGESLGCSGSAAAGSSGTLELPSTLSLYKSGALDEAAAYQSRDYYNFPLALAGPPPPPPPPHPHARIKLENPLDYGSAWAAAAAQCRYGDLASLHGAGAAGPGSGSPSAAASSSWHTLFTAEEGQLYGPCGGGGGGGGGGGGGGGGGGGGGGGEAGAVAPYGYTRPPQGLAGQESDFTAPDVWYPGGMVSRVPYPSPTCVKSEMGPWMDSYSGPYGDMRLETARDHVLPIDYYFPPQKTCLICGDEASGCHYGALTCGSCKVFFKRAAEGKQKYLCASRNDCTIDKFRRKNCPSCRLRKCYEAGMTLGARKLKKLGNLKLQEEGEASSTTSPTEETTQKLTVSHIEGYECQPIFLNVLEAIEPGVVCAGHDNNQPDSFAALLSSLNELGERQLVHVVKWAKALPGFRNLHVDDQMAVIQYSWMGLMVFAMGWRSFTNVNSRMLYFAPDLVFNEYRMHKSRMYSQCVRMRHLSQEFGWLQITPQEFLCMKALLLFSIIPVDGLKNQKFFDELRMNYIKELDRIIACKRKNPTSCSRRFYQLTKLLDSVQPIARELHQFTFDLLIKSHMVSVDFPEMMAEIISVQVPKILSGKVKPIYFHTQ

[2] = tested on: ovariectomized mature female rat; assay: In vivo assay, ovariectomized mature female rats (12 weeks); details: for uterine weight to length ratio versus OVX controls: 0.03-3 mg/kg/day PO; for uterine weight to length ratio versus sham levels: high dose (3 mg/kg); for increase of gastrocnemius muscle mass / mean change in body weight: maximally effective dose 0.3 mg/kg PO; for clitoral weight, activity versus testosterone / clitoral gland weight versus sham: mid dose (0.3 mg/kg); for clitoral gland weight versus sham: 0.3 mg/kg
Excerpt: In animal models of osteoporosis, androgens increase bone density and strength in male rats (Wakely et al., J Bone & Mineral Research 6: 325-330 (1991) and Vandenput et al., Calcified Tissue International 70: 170-175 (2002)) and female rats (Tobias et al., Am J Physiology 267: E853-E859 (1994) and Coxam et al., Bone 19: 107-114 (1996)). The ovariectomized mature female rat model was used to assess the effects of orally administered compounds provided herein, such as Compound 102, on bone as well as other efficacy and side-effect endpoints including muscle mass, fat mass and clitoral gland weight.
In this assay, approximately three-month old rats were acclimated in a vivarium for one week. After acclimation, rats were anesthetized with Avertin and the ovariectomy (OVX) was performed using the dorsal approach. For the sham procedure, the surgical procedure was conducted per protocol, and the ovaries exteriorized but not removed. After recovery, no further experimental manipulations were performed for seven weeks, at which point the rats were scanned by dual energy x-ray absorptiometry and sorted into experimental groups based upon femoral bone mineral content (BMC). Three dosages of Compound 102 were tested (0.03, 0.3 and 3 mg/kg/day PO). For comparison, ostarine, a known non-steroidal SARM, was tested at the same dosages (0.03, 0.3 and 3 mg/kg/day PO). In addition, reference compounds estradiol and testosterone were administered. Estradiol was administered subcutaneously to one ovariectomized group at a dose of 0.1 mg/kg/day and testosterone propionate was administered subcutaneously to another ovariectomized group at a dose of 1 mg/kg/day.
Treatment continued once daily for 12 weeks, at which point animals were euthanized and tissues were collected for further analysis. Animals received subcutaneous injections of fluorochrome markers for bone histomorphometric analysis. Alizarian Red S was prepared as a 3% solution and given at a dose of 30 mg/kg at the time of the baseline scan. Calcein was administered 10 days and 3 days prior to necropsy.
After the 14th dose, approximately 250 μL venous blood was collected via percutaneous jugular puncture from the rats at 0, 0.5, 1, 2, 4 and 6 hours post-dosing. The blood samples were collected into lithium-heparin tubes (Becton Dickinson, Franklin Lakes, N.J.). Plasma fractions were collected for pharmacokinetic analysis. Approximately 24 hours after the last dose, rats were sacrificed by cardiac exsanguination, and blood was collected into serum separator tubes (Becton Dickinson), and the gastrocnemius muscle, plantaris muscle, uterus, clitoral glands, clitoris and inguinal fat pads were isolated, blotted and weighed individually. Uterine weight measurements can be inaccurate in surgically ovariectomized rats due to the potential loss of uterine tissue at the tips of the uterine horns during removal of the ovaries. To minimize this variability, the length of the uterine horns was measured and the uterine weight was reported normalized to uterine length. The left femur and lumbar vertebra L5 were wrapped in saline-soaked gauze and stored at −20° C. for biochemical analysis. The right femur and lumbar vertebrae L3-L4 were collected and stored in 70% ethanol for histomorphometry. The right tibia was collected in formalin for histological analysis. The left tibia was collected on dry ice and stored at −20° C. for measurement of alkaline phosphatase activity.
Compound 102 and ostarine individually were formulated in a solution containing 5% Tween-80 polysorbate, 90% PEG-400 polyethylene glycol, and 5% polyvinylpyrrolidone K30. The mixture was stirred and sonicated in a water bath for 30 minutes until the compound dissolved into a solution. After sonication, 1% carboxymethyl cellulose (CMC) in water was added to the solution in a 9:1 ratio (9 parts CMC/water solution to 1 part PEG-400/Tween-80/PVP). Compound 102 and ostarine were administered orally in a volume of 4 mL/kg. […]

[3] = OVX rats, high dose (3 mg/kg/day PO)
[4] = OVX rats, low dose (0.03 mg/kg/day PO)
[5] = OVX rats, 12 weeks, 3-point bending

Compound: N#Cc1ccc(N2CCC[C@@H]2[C@@H](O)C(F)(F)F)cc1C(F)(F)F [Compound 102, R,R-4-(2-(1-Hydroxyl-2,2,2-trifluoroethyl)-pyrrolidinyl)-2-trifluoromethyl-benzonitrile]
- Ki [1]: 0.9 nM
- uterine weight to length ratio versus OVX controls [2]: increased uterine weight to length ratio above estrogen deficient OVX controls in a dose dependent manner
- uterine weight to length ratio versus sham levels ([2]; OVX rats): significantly (P<0.01) increased above sham levels
- clitoral gland weight [2, 3]: increased clitoral gland weight
- clitoral weight [2, 3]: significantly increased clitoral weight
- increase of uterine weight to length ratio compared with ostarine ([2]; OVX rats, low and mid dose, P<0.01): significantly less than ostarine
- clitoral gland weight [2, 4]: Neither Compound 102 nor ostarine affected
- clitoral weight [2, 4]: did not affect clitoral weight
- uterine weight to length ratio versus sham operated controls [2, 4]: significantly (P<0.01) less than sham operated controls
- increase of gastrocnemius muscle mass ([2]; OVX rats): 17%
- mean change in body weight ([2]; OVX rats): +66 grams
- clitoral weight, activity versus testosterone ([2]; OVX rats): significantly less activity versus testosterone
- clitoral gland weight versus sham ([2]; OVX rats): only slightly above the sham level; also recorded: did not quite achieve statistical significance versus sham
- uterine weight to length ratio versus sham operated controls ([2]; OVX rats, mid dose (0.3 mg/kg/day PO)): significantly (P<0.01) less than sham operated controls

Compound: O=[N+]([O-])c1ccc(N2CCC[C@@H]2[C@H](O)C(F)(F)F)cc1C(F)(F)F [LG0893411, S, R-2,2,2-trifluoro-1-[1-(4-nitro-3-trifluoromethyl-phenyl)-pyrrolidin-2-yl]-ethanol]
- Ki [1]: 5.7 nM

Compound: O=[N+]([O-])c1ccc(N2CCC[C@@H]2[C@@H](O)C(F)(F)F)cc1C(F)(F)F [LG0893410, R,R-2,2,2-trifluoro-1-[1-(4-nitro-3-trifluoromethyl-phenyl)-pyrrolidin-2-yl]-ethanol]
- Ki [1]: 2.5 nM

Compound: C[C@](O)(COc1ccc(C#N)cc1)C(=O)Nc1ccc(C#N)c(C(F)(F)F)c1 [ostarine]
- uterine weight to length ratio versus OVX controls [2]: increased uterine weight to length ratio above estrogen deficient OVX controls in a dose dependent manner
- alkaline phosphatase activity from isolated tibiae ([2]; OVX rats, 12 weeks): significantly increased
- whole femur bending stiffness [2, 5]: slightly more effectively than Compound 102
- whole femur bending strength [2, 5]: slightly less effectively than Compound 102
- cortical bone area ([2]; OVX rats, 12 weeks, histomorphometry): increased cortical bone area
- serum osteocalcin ([2]; OVX rats, 12 weeks, versus vehicle-treated OVX controls): significantly suppressed
- body weight gain from baseline compared to vehicle ([2]; OVX rats, 12 weeks, Compound 102/ostarine 0.03, 0.3, 3 mg/kg/day PO, testosterone propionate 1 mg/kg/day s.c.): significantly increased weight gain compared to vehicle at the mid and high dose levels; also recorded: at the low dose there was no significant difference from vehicle
- inguinal fat pad weight ([2]; OVX rats, 12 weeks, any dose, estradiol 0.1, testosterone propionate 1 mg/kg/day s.c.): neither Compound 102 nor ostarine significantly affected inguinal fat pad weight at any dose
- uterine weight to length ratio versus sham levels ([2]; OVX rats): significantly (P<0.01) increased above sham levels
- clitoral gland weight [2, 3]: increased clitoral gland weight
- clitoral weight [2, 3]: significantly increased clitoral weight
- clitoral gland weight [2, 4]: Neither Compound 102 nor ostarine affected
- clitoral weight [2, 4]: did not affect clitoral weight
- uterine weight to length ratio versus sham operated controls [2, 4]: significantly (P<0.01) less than sham operated controls
- increase of gastrocnemius muscle mass ([2]; OVX rats): 10%
- mean change in body weight ([2]; OVX rats): +65 grams
- clitoral weight, activity versus testosterone ([2]; OVX rats): not significantly different from testosterone
- clitoral gland weight versus sham ([2]; OVX rats): only slightly above the sham level; also recorded: statistically significant (P<0.05)
